Literature values as cited in US6569898B2, “Use of (Z) -2-cyano-3-hydroxy-but-2-enoic acid-(4′-trifluoromethylphenyl)-amide for treating multiple sclerosis” (Aventis Pharmaceuticals Inc., priority 2001, dated 2003).

Assays:
[1] = test system: immune cells and cell lines
[2] = molecular target: dihydrooate dehydrogenase (Homo sapiens, UniProt Q02127); details: enzyme essential for the synthesis of pyrimidines
dihydrooate dehydrogenase, sequence (Q02127 whole entry): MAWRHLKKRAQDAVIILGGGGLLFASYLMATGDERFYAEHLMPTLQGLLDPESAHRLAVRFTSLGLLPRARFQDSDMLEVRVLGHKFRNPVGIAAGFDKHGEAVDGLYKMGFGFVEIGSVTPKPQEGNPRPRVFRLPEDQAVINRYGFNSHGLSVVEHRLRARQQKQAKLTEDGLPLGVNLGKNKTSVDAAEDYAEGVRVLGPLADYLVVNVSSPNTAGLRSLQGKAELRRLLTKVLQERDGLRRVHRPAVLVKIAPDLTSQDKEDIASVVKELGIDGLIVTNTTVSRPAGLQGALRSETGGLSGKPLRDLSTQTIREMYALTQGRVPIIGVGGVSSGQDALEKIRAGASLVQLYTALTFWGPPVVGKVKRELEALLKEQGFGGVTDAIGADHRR

For `C/C(O)=C(\C#N)C(=O)Nc1ccc(C(F)(F)F)cc1` [Teriflunomide, (Z)-2-cyano-3-hydroxy-but-2-enoic acid-(4′-trifluoromethylphenyl)-amide], the “antiproliferative effects on a wide variety of immune cells and cell lines” value [1] is given as “antiproliferative effects” and the “inhibition of the enzyme dihydrooate dehydrogenase” value [2] is given as “inhibits”.
